Reference: patent US20070004634A1 (Novo Nordisk A/S, priority 1998, published 2007)
Positions of bridges follow the written chain, without caps; N, C: chain ends. Residues, ends and D or L forms follow the SMILES beside them. No end group written: not given here.

Experiments:
IR [1] = molecular target: T1, IR (Homo sapiens, UniProt P06213); assay: IR-IC50 Biacore; design: replacing the transmembrane domain and the intracellular domain of IR with constant domains from immunoglobulin Fc or λ subunits; made in house; host or cells: human embryonic kidney 293 cells (Bass et al.)
Target sequence in this assay (P06213 28-758 limits assumed): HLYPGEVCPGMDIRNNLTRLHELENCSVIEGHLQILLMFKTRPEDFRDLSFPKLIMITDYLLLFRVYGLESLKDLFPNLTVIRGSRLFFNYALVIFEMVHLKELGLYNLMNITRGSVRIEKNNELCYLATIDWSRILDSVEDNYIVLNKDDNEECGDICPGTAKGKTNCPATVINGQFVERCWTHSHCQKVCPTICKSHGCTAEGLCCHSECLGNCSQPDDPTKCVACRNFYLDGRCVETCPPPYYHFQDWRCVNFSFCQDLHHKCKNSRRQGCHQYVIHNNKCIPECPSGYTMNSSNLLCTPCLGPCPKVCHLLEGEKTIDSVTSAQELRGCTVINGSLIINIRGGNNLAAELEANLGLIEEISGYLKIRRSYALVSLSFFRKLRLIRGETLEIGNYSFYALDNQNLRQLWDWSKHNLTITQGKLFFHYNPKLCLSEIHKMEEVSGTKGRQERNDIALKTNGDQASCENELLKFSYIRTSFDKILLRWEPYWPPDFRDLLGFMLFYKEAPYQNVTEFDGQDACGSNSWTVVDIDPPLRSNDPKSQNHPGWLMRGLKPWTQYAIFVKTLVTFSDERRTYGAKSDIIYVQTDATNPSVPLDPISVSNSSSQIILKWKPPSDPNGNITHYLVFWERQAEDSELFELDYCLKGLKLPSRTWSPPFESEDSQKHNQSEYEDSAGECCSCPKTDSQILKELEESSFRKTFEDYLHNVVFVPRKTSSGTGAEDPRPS
Target sequence in this assay (P06213 763-1382 limits assumed): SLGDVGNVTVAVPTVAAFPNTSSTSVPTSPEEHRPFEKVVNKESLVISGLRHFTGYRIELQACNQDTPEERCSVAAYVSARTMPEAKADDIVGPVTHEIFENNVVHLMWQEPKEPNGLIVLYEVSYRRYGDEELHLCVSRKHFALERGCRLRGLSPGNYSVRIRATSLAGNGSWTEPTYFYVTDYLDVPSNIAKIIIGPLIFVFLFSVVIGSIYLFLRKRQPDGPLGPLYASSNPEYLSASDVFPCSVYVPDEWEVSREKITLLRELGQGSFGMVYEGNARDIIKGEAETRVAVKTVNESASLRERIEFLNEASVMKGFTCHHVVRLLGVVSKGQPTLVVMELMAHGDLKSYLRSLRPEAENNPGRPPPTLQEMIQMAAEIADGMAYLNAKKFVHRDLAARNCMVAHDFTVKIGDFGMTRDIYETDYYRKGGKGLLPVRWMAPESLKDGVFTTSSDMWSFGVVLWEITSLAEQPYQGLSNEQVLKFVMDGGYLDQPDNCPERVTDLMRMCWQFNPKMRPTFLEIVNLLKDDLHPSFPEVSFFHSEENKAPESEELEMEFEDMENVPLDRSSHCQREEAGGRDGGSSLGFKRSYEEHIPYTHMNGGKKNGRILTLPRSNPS

IGF-1R = IGF-1R (Homo sapiens, UniProt P08069); assay: Phage ELISA, binding of phage clones to IGF-1R (ratio over background); conditions: ratio of IGF-1R divided by ratio of IR
IR [2] = molecular target: T1, IR; assay: Phage ELISA, binding of phage clones to IR (ratio over background); conditions: ratio of IR divided by ratio of IGF-1R
Target sequence in this assay (P06213 28-758 limits assumed): as the sequence (P06213 28-758 limits assumed) above
Target sequence in this assay (P06213 763-956 limits assumed): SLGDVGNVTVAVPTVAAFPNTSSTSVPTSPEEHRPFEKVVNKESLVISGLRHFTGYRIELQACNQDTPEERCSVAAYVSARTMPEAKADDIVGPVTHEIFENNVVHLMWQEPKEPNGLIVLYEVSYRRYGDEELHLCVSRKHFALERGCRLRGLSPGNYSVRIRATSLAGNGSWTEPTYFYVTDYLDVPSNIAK

[3] = system: free fat cells (adipocytes); assay: Adipocyte / free fat cell (FFC) assay, 3H glucose incorporation into lipid
[4] = molecular target: T2, human insulin receptor (HIR) (Homo sapiens, UniProt P06213); assay: Insulin receptor binding, competition with 125I-labeled insulin (HIR Kd)
T2 construct: made in house

[5] = molecular target: T3, soluble human insulin receptor-immunoglobulin heavy chain chimera (sIR-Fc) (Homo sapiens, UniProt P06213); assay: Fluorescence polarization, competition with FITC-RP9 for sIR-Fc; assay type: binding; conditions: higher values indicated higher affinity for IR than IGF-1R
T3 construct: replacing the transmembrane domain and the intracellular domain of IR with constant domains from immunoglobulin Fc or λ subunits; made in house; host or cells: human embryonic kidney 293 cells (Bass et al.)

MiaPaCa cells = assay: MiaPaCa cell proliferation assay, IGF-1R agonist format; assay type: cell-based, human
MCF-7 cells = assay: MCF-7 cell proliferation assay, IGF-1R agonist format; assay type: cell-based, human
Text: ; FIGS. 65A-65F), and were used for subsequent experiments.

[6] = system: FDC-P2 cells expressing the IL-3 and human IGF-1R receptors; assay: IGF-1 proliferation assay in FDC-P2 cells, agonist format; conditions: FDC-P2 cells, agonist format; for EC50: read-out: nM ED50 Growth
[7] = FFC assay potency grade, 0, + to ++++++, −
[8] = MBP-fusion or recombinant peptide as listed
[9] = free fat cell assay potency class, Table 7

T2 sequence (P06213 28-758 limits assumed): as the sequence (P06213 28-758 limits assumed) above
T2 sequence (P06213 763-1382 limits assumed): as the sequence (P06213 763-1382 limits assumed) above
T3 sequence (P06213 28-758 limits assumed, stated change not applied): as the sequence (P06213 28-758 limits assumed) above
T3 sequence (P06213 763-956 limits assumed, stated change not applied): as the sequence (P06213 763-956 limits assumed) above
IGF-1R, sequence (P08069 31-736 limits assumed): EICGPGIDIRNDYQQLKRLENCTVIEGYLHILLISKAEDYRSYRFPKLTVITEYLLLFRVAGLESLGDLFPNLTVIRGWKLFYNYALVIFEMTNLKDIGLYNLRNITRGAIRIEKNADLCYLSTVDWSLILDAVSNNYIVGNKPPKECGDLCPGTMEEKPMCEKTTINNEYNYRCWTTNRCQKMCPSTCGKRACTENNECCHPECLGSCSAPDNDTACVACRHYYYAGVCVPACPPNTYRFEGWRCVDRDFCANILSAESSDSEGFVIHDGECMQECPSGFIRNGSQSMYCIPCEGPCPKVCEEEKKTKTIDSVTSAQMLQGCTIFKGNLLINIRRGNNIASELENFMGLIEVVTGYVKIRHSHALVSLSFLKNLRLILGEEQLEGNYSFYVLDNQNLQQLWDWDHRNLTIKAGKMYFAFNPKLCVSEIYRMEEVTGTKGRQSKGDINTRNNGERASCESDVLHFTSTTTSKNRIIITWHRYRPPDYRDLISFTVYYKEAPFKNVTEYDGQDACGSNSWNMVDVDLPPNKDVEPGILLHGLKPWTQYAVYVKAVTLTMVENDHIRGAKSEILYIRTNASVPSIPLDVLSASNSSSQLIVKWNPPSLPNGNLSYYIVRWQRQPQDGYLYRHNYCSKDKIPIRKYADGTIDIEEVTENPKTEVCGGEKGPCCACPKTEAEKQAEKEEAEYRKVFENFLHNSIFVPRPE
IGF-1R, sequence (P08069 741-935 limits assumed): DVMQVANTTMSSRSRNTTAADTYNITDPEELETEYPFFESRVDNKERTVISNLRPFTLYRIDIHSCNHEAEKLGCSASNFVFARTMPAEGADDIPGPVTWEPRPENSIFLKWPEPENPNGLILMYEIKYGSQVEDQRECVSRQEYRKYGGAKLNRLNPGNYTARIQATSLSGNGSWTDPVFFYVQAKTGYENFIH

Q: For `CC(C)C[C@H](NC(=O)CNC(=O)[C@H](CCCNC(=N)N)NC(=O)CNC(=O)[C@H](CCC(=O)O)NC(=O)[C@@H](N)C(C)C)C(=O)N[C@@H](Cc1ccccc1)C(=O)N[C@@H](Cc1ccc(O)cc1)C(=O)N[C@@H](CC(=O)O)C(=O)N[C@@H](CC(C)C)C(=O)N[C@@H](CC(C)C)C(=O)N[C@@H](CCCNC(=N)N)C(=O)N[C@@H](CCC(N)=O)C(=O)N[C@@H](CC(C)C)C(=O)N[C@@H](CC(C)C)C(=O)N[C@@H](C)C(=O)N[C@@H](CCCNC(=N)N)C(=O)N[C@@H](CCCNC(=N)N)C(=O)N[C@@H](CCC(N)=O)C(=O)N[C@@H](CC(N)=O)C(=O)NCC(=O)O` [20E2B-3-C6-IGFR], which IC50 (IR [1]) is on record?
A: > 5 µM

Q: What about the “Comparisons IGF-1R/IR” value (IGF-1R) of the same compound?
A: 14.8

Q: What about the “Comparisons IR/IGF-1R” value (IR [2]) of the same compound?
A: 0.1

Q: For `CC(C)[C@H](NC(=O)[C@H](Cc1ccccc1)NC(=O)[C@H](Cc1c[nH]c2ccccc12)NC(=O)[C@H](CC(=O)O)NC(=O)[C@H](Cc1ccc(O)cc1)NC(=O)[C@H](Cc1ccccc1)NC(=O)[C@H](CC(N)=O)NC(=O)[C@H](CCC(=O)O)NC(=O)[C@H](Cc1c[nH]cn1)NC(=O)[C@@H](N)Cc1ccccc1)C(=O)N[C@@H](CCCNC(=N)N)C(=O)N[C@@H](CCC(N)=O)C(=O)N[C@H](C(=O)N[C@@H](CO)C(=O)N[C@@H](CCCCN)C(=O)N[C@@H](CCCCN)C(=O)NCCCC[C@H](NC(=O)[C@H](CCCCN)NC(=O)[C@H](CCCCN)NC(=O)[C@H](CO)NC(=O)[C@@H](NC(=O)[C@H](CCC(N)=O)NC(=O)[C@H](CCCNC(=N)N)NC(=O)[C@@H](NC(=O)[C@H](Cc1ccccc1)NC(=O)[C@H](Cc1c[nH]c2ccccc12)NC(=O)[C@H](CC(=O)O)NC(=O)[C@H](Cc1ccc(O)cc1)NC(=O)[C@H](Cc1ccccc1)NC(=O)[C@H](CC(N)=O)NC(=O)[C@H](CCC(=O)O)NC(=O)[C@H](Cc1c[nH]cn1)NC(=O)[C@@H](N)Cc1ccccc1)C(C)C)C(C)C)C(=O)O)C(C)C` [Peptide S145], which FFC [3, 7] is on record?
A: ++

Q: `CC(C)[C@H](NC(=O)[C@H](Cc1ccccc1)NC(=O)[C@H](Cc1c[nH]c2ccccc12)NC(=O)[C@H](CC(=O)O)NC(=O)[C@H](Cc1ccc(O)cc1)NC(=O)[C@H](Cc1ccccc1)NC(=O)[C@H](CC(N)=O)NC(=O)[C@H](CCC(=O)O)NC(=O)[C@H](Cc1c[nH]cn1)NC(=O)[C@H](Cc1ccccc1)NC(=O)[C@@H](N)CNC(=O)CON=CCCCCC=NOCC(=O)NC[C@H](N)C(=O)N[C@@H](Cc1ccccc1)C(=O)N[C@@H](Cc1c[nH]cn1)C(=O)N[C@@H](CCC(=O)O)C(=O)N[C@@H](CC(N)=O)C(=O)N[C@@H](Cc1ccccc1)C(=O)N[C@@H](Cc1ccc(O)cc1)C(=O)N[C@@H](CC(=O)O)C(=O)N[C@@H](Cc1c[nH]c2ccccc12)C(=O)N[C@@H](Cc1ccccc1)C(=O)N[C@H](C(=O)N[C@@H](CCCNC(=N)N)C(=O)N[C@@H](CCC(N)=O)C(=O)N[C@H](C(=O)N[C@@H](CO)C(=O)N[C@@H](CCCCN)C(=O)N[C@@H](CCCCN)C(N)=O)C(C)C)C(C)C)C(=O)N[C@@H](CCCNC(=N)N)C(=O)N[C@@H](CCC(N)=O)C(=O)N[C@H](C(=O)N[C@@H](CO)C(=O)N[C@@H](CCCCN)C(=O)N[C@@H](CCCCN)C(N)=O)C(C)C` [Peptide S169] was tested. Which FFC [3, 7] did it give?
A: ++

Q: How did the FFC [3, 7] turn out when `CC(C)[C@H](NC(=O)[C@H](Cc1ccccc1)NC(=O)[C@H](Cc1c[nH]c2ccccc12)NC(=O)[C@H](CC(=O)O)NC(=O)[C@H](Cc1ccc(O)cc1)NC(=O)[C@H](Cc1ccccc1)NC(=O)[C@H](CC(N)=O)NC(=O)[C@H](CCC(=O)O)NC(=O)[C@H](Cc1c[nH]cn1)NC(=O)[C@H](Cc1ccccc1)NC(=O)[C@@H](N)CNC(=O)CON=CCCCCCCC=NOCC(=O)NC[C@H](N)C(=O)N[C@@H](Cc1ccccc1)C(=O)N[C@@H](Cc1c[nH]cn1)C(=O)N[C@@H](CCC(=O)O)C(=O)N[C@@H](CC(N)=O)C(=O)N[C@@H](Cc1ccccc1)C(=O)N[C@@H](Cc1ccc(O)cc1)C(=O)N[C@@H](CC(=O)O)C(=O)N[C@@H](Cc1c[nH]c2ccccc12)C(=O)N[C@@H](Cc1ccccc1)C(=O)N[C@H](C(=O)N[C@@H](CCCNC(=N)N)C(=O)N[C@@H](CCC(N)=O)C(=O)N[C@H](C(=O)N[C@@H](CO)C(=O)N[C@@H](CCCCN)C(=O)N[C@@H](CCCCN)C(N)=O)C(C)C)C(C)C)C(=O)N[C@@H](CCCNC(=N)N)C(=O)N[C@@H](CCC(N)=O)C(=O)N[C@H](C(=O)N[C@@H](CO)C(=O)N[C@@H](CCCCN)C(=O)N[C@@H](CCCCN)C(N)=O)C(C)C` [Peptide S172] was run?
A: +++

Q: `CC(C)[C@H](NC(=O)[C@H](Cc1ccccc1)NC(=O)[C@H](Cc1c[nH]c2ccccc12)NC(=O)[C@H](CC(=O)O)NC(=O)[C@H](Cc1ccc(O)cc1)NC(=O)[C@H](Cc1ccccc1)NC(=O)[C@H](CC(N)=O)NC(=O)[C@H](CCC(=O)O)NC(=O)[C@H](Cc1c[nH]cn1)NC(=O)[C@H](Cc1ccccc1)NC(=O)CNC(=O)CNC(=O)[C@@H](N)CSSC[C@H](N)C(=O)NCC(=O)NCC(=O)N[C@@H](Cc1ccccc1)C(=O)N[C@@H](Cc1c[nH]cn1)C(=O)N[C@@H](CCC(=O)O)C(=O)N[C@@H](CC(N)=O)C(=O)N[C@@H](Cc1ccccc1)C(=O)N[C@@H](Cc1ccc(O)cc1)C(=O)N[C@@H](CC(=O)O)C(=O)N[C@@H](Cc1c[nH]c2ccccc12)C(=O)N[C@@H](Cc1ccccc1)C(=O)N[C@H](C(=O)N[C@@H](CCCNC(=N)N)C(=O)N[C@@H](CCC(N)=O)C(=O)N[C@H](C(=O)N[C@@H](CO)C(=O)N[C@@H](CCCCN)C(=O)N[C@@H](CCCCN)C(=O)O)C(C)C)C(C)C)C(=O)N[C@@H](CCCNC(=N)N)C(=O)N[C@@H](CCC(N)=O)C(=O)N[C@H](C(=O)N[C@@H](CO)C(=O)N[C@@H](CCCCN)C(=O)N[C@@H](CCCCN)C(=O)O)C(C)C` [Peptide S228] was tested. Which FFC [3, 7] did it give?
A: ++

Q: How did the FFC [3, 7] turn out when `CC[C@@H](C)[C@@H](NC(=O)[C@H](CCC(=O)O)NC(=O)[C@H](CC(=O)O)NC(=O)[C@H](Cc1ccccc1)NC(=O)[C@H](Cc1c[nH]c2ccccc12)NC(=O)[C@H](CCC(=O)O)NC(=O)[C@H](Cc1ccc(O)cc1)NC(=O)[C@H](Cc1ccccc1)NC(=O)[C@H](CCC(=O)O)NC(=O)[C@H](CCCCN)NC(=O)[C@H](CC(N)=O)NC(=O)[C@H](CC(N)=O)NC(=O)[C@@H](N)CCCCN)C(=O)NCC(=O)N[C@H](CCC(N)=O)C(=O)O` [Peptide S320] (HELM PEPTIDE1{K.N.N.K.E.F.Y.E.W.F.D.E.[dI].G.[dQ]}$$$$V2.0; N-terminus and C-terminus assumed) was run?
A: 0

Q: Which “activity in the free fat cell (FFC) assay / at IR, in words” value [3] does the source give for (ESFYDWFERQLGK)2-23 [Peptide S415] here?
A: highly potent

Q: For “DYKDDDDKVRVDWLQRNANFYAWFVAELGGGSGGSGGSGGSGRVDWLQRNANFYDWFVAELGAAAGAPVPYPDPLEPRAA [RB509]”, which Kd [4, 8] is on record?
A: 0.055 µM

Q: ESFYDWFERQ [Peptide S400] was tested. Which FFC ([3]; Table 6, free fat cell assay) did it give?
A: 0

Q: What about the FFC [3, 9] of the same compound?
A: 0

Q: For FHENFYDWFVQRVSKK [H2C (D117)], which “Bndg Ratio IGF-1R/IR” value [5] is on record?
A: 9

Q: For GRFYGWFQDAIDQLMPWGFD [RP-3], which IC50 (IR [1]) is on record?
A: > 10 µM

Q: With GSLDESFYDWFER [Peptide S396] as the compound, how does the FFC ([3]; Table 6, free fat cell assay) read?
A: 0

Q: What about the FFC [3, 9] of the same compound?
A: 0

Q: GSLDESFYDWFERQ [Peptide S394] was tested. Which “activity in the free fat cell (FFC) assay / at IR, in words” value [3] did it give?
A: potency similar to full-length RP9 monomer peptides

Q: What about the FFC [3, 9] of the same compound?
A: +

Q: With GSLDESFYDWFERQL [Peptide S395] as the compound, how does the FFC ([3]; Table 6, free fat cell assay) read?
A: +

Q: And the Kd ([4]; Table 6)?
A: 0.091 µM

Q: How did the FFC [3, 7] turn out when GSLDESFYDWFERQLG [Peptide S386] was run?
A: +

Q: With GSRPVFHEQFYEWFVDQLGL [RP-1] as the compound, how does the IC50 (IR [1]) read?
A: 1 µM

Q: What does the source list for “Insulin-like growth factor 1 [IGF-1, reference compound]”?
A: EC50 (MiaPaCa cells; MiaPaCa cells, serum-free conditions, read-out: ED50, proliferation): 0.005 µM; EC50 (MCF-7 cells; MCF-7 cells, serum-free conditions, read-out: ED50, proliferation): 0.005 µM

Q: Which Kd [4, 8] does the source give for “MADYKDDDDKGSLDESFYDWFERQLGKKGGSGGSGSLDESFYDWFERQLGKKAAAGAPVPYPDPLEPRPG [RB521]” here?
A: 0.044 µM

Q: With “MADYKDDDDKWLDQEWAWVQCEVYGRGCPSGGSGGSGSLDESFYDWFERQLGKKAAA(ETAG)PG [Peptide 539]” as the compound, how does the “activity in the free fat cell (FFC) assay / at IR, in words” value [3] read?
A: full agonist

Q: MGSLDESFYDWFERQLGEEEGGDHHHHHHPG [RB569] was tested. Which Kd [4, 8] did it give?
A: 0.21 µM

Q: How did the Kd [4, 8] turn out when “MQNDDGSLDESFYDWFERQLGEEEGGDHHHHHHPG [RB570]” was run?
A: 0.025 µM

Q: PPWGARFYDAIEQLVFDNL [RP-4] was tested. Which IC50 (IR [1]) did it give?
A: 5 µM

Q: QSFYDYIEELLGGEWKK [Peptide 20E2-PD1-IR] was tested. Which IC50 (IR [1]) did it give?
A: > 5 µM

Q: Which FF ([3]; fat cell potency, symbols ++ and − not defined in the table) does the source give for RB596 (MQNDDGSLDESFYDWFERQLGHHHHHHPG) here?
A: 9.4*10^−8

Q: “RP6-D8B12 (TFYSCLASLLTGTPQPNRGPWERCRWLEQERAWIWCEIQGSGCRA; not fully specified; cysteine pairing not given here)” was tested. Which “MiaPaCa Agonist” value (MiaPaCa cells; MiaPaCa cell proliferation, agonist effect) did it give?
A: +

Q: What about the “MCF-7 Agonist” value (MCF-7 cells; MCF-7 cell proliferation, agonist effect) of the same compound?
A: +

Q: With RSEASFHVEFYSWFEEQLRS [RP-2] as the compound, how does the IC50 (IR [1]) read?
A: 1 µM

Q: With “WLDQERAWLWCEISGRGCLSGGSGGSGGSGGSGSLDESFYDWFERQLGKK (disulfide 11-18 (inferred)) [D815-RP9 12 aa]” as the compound, how does the “Max Action” value [6] read?
A: 100%

Q: What about the EC50 [6] of the same compound?
A: 10000 nM

Q: How did the “Max Action” value [6] turn out when “WLDQERAWLWCEISGRGCLSGGSGGSGSLDESFYDWFERQLGKK (disulfide 11-18 (inferred)) [D815-RP9 6 aa]” was run?
A: >50%

Q: What about the EC50 [6] of the same compound?
A: 50 nM
